How the values were obtained:
Assay type in all cases: physicochemical
[1] = Dye stability testing: dark keeping, dark/wet fade; details: dye image from coupler, dark oven, 60° C., 70% relative humidity, fractional density change at absorption maximum
Procedure: (§1) Each coupler of the invention and each comparison coupler was dissolved in half its weight of tricresylphosphate as the coupler solvent using 2-(2-butoxyethoxy)ethyl acetate as the auxiliary solvent. The coupler was dispersed in a gelatin solution and the auxiliary solvent was removed by evaporation under reduced pressure.
(§2) Experimental photographic coatings were prepared by coating a cellulose acetate film support with a photosensitive layer comprising a dispersion of the coupler as formulated above coated at a laydown of 1.04 mmol m^-2, a silver chlorobromide emulsion at 1.61 gm^-2 Ag, gelatin at 2.42 gm^-2 and a hardener at 0.06 gm^-2. An overcoat containing gelatin at 1.5 gm^-2 was applied to the photosensitive layer.
(§3) The dried experimental coating was then slit and chopped into test strips.
(§4) The test strips were exposed through a neutral density step-wedge test object. The strips were then processed through a standard C41 processing cycle as described in the British Journal of Photographic Annual 1977, pages 204-5. The processed strips were then dried to give stepped dye images.
(§5) Test strips were exposed as above through a step-wedge test object and appropriate filters to give to give an optical density of about 1.0. The strips were processed using the standard conditions described above and samples cut from the dye image step with density closest to 1.0. Visible absorption spectra (normalized to 1.0 density) were obtained using a spectrophotometer.
Dye sample patches having a density of about 1.0 were prepared as for spectrophotometric testing and their absorption spectram measured as above.
[…] The spectrophotometric curves of the samples were then remeasured and the degree of fade quoted as the fractional decrease in density at the absorption maximum relative to the initial density prior to fading. The results are presented as dark/wet fade data.
(§6) In the following Examples, Couplers 1 to 6 are as defined above. Comparison Couplers C-1 to C-6 have the same structures as Couplers 1 to 6, respectively, except that the silyl group is replaced by a hydrogen atom. For example, Coupler C-1 has the structure depicted by Formula I wherein Q=C1 and R=H.

[2] = Spectrophotometric testing: dye hue (λmax and half-bandwidth); details: dye image, density about 1.0, C41 processing
Procedure: as §1, §2, §3, §4, §5
Dye hues are expressed in terms of the wavelength corresponding to the maximum absorption peak (λmax) and the half-bandwidth (HBW) calculated from the spectrophotometric curves.
as §6

[3] = Solubility of the coupler in di-n-butylphthalate coupler solvent (dye dispersibility)
Source text: as §6

Row | Solubility ([3]; 20 mg in 1 ml di-n-butylphthalate, 2 min on steam bath at 80° C.) | Solubility ([3]; 40 mg in 1 ml di-n-butylphthalate, 6 min on steam bath at 80° C.) | Solubility ([3]; 100 mg in 1 ml di-n-butylphthalate, 6 min on steam bath at 80° C.) | SMILES | Dark/Wet Fade, 1 wk [1] | Dark/Wet Fade, 3 wk [1] | Dark/Wet Fade [1] | HBW (half-bandwidth) of dye absorption [2] [nm] | λmax of dye [2] | Solubility ([3]; 80 mg in 0.05 ml di-n-butylphthalate, 1 min on steam bath at 80° C.) | Solubility ([3]; 80 mg in 0.1 ml di-n-butylphthalate, 1 min on steam bath at 80° C.) | Solubility relative to Coupler C-1 ([3]; compared with Coupler C-1 under these conditions (di-n-butylphthalate, steam bath 80° C.))
1 | – | – | – | CCCCCCCCCCC(Oc1ccc(S(=O)(=O)c2ccc(O[Si](C)(C)C(C)(C)C)cc2)cc1)C(=O)Nc1ccc(CCCc2n[nH]c3c(Cl)c(C)nn23)cc1 (stereo not drawn) [Coupler 1] | +0.02 | 0.00 | +0.01 | 86.5 | 548.5 | soluble | soluble | greater than ten times more soluble
2 | – | – | – | CCCCCCCCCCC(Oc1ccc(S(=O)(=O)c2ccc(O)cc2)cc1)C(=O)Nc1ccc(Cl)c(NC2=NN(c3c(Cl)cc(Cl)cc3Cl)C(=O)C2)c1 (stereo not drawn) [Coupler C-4] | – | – | – | 92 | 545.5 | – | – | –
3 | – | – | – | CCCCCCCCCCCCC(Oc1ccc(O)c(C(C)(C)C)c1)C(=O)Nc1ccc(Cl)c(NC2=NN(c3c(Cl)cc(Cl)cc3Cl)C(=O)C2)c1 (stereo not drawn) [Coupler C-3] | -0.04 | -0.09 | -0.08 | 82 | 544.5 | – | – | –
4 | soluble | soluble | insoluble | CCCCCCCCCCC(Oc1ccc(S(=O)(=O)c2ccc(O)cc2)cc1)C(=O)Nc1ccc(CCCc2n[nH]c3c(Cl)c(C)nn23)cc1 (stereo not drawn) [Coupler C-1] | +0.07 | +0.06 | +0.05 | 89.5 | 553 | – | – | –
5 | – | – | – | CCCCCCCCCCCCC(Oc1ccc(O[Si](C)(C)C(C)(C)C)c(C(C)(C)C)c1)C(=O)Nc1ccc(Cl)c(NC2=NN(c3c(Cl)cc(Cl)cc3Cl)C(=O)C2)c1 (stereo not drawn) [Coupler 3] | -0.02 | -0.09 | -0.04 | 78.5 | 539.5 | – | – | –
6 | – | – | – | CCCCCCCCCCC(Oc1ccc(S(=O)(=O)c2ccc(O[Si](C)(C)C(C)(C)C)cc2)cc1)C(=O)Nc1ccc(Cl)c(NC2=NN(c3c(Cl)cc(Cl)cc3Cl)C(=O)C2)c1 (stereo not drawn) [Coupler 4] | – | – | – | 84.5 | 541.5 | – | – | –

From patent publication US4973545A, “Photographic couplers with aryloxysilyl groups” (Eastman Kodak Company, priority 1988, dated 1990)
